Values after ≈ are worked out from the molar mass of the structure shown. Some results are limits rather than exact numbers.

Assay [1] relates to MDCK. Put plainly: Minimum inhibitory concentration required to reduce influenza A H2N2 virus induced cytopathogenicity by 50% in madin-Darby canine kidney cells (MDCK). The following applies: Canis lupus familiaris. The assay is classed as functional. In general terms: Cytopathic effects are the visible damage that an infection or toxin causes in cultured cells.
Assay [2] deals with MDCK. In words: Minimum cytotoxic concentration required to cause a microscopically detectable alteration of normal cell morphology in madin-Darby canine kidney cells (MDCK). The assay is classed as functional, Canis lupus familiaris.
Assay [3] concerns MDCK. In words: Minimum inhibitory concentration required to reduce influenza A H3N2 (X31) virus induced cytopathogenicity by 50% in madin-Darby canine kidney cells (MDCK). The assay is classed as functional. The following applies: Canis lupus familiaris.

For the molecule `CCCN1CCC(C2C3CC4CC(C3)CC2C4)C1` (stereo unspecified), the MIC50 against MDCK [1] and in the assay with MDCK [3] was more than 28.2 µM in each case. For the same molecule, the MCC50 with MDCK [2] came out at 140.9 µM.

Regarding `CN1CCC(C2C3CC4CC(C3)CC2C4)C1` (stereo unspecified), the MIC50 in the assay on MDCK [1] and in the assay on MDCK [3] was 18.8 µM (≈ 4.12 µg/mL) each time. Also, the MCC50 with MDCK [2] was more than 156.4 µM.

On to `CCN1CCC(C2C3CC4CC(C3)CC2C4)C1` (stereo unspecified), for which the MIC50 in the assay on MDCK [1] and against MDCK [3] was more than 29.7 µM throughout. Besides, in the assay on MDCK [2], the MCC50 stood at 148.2 µM.

Regarding `CCN(CC)CCN1CCC(C2C3CC4CC(C3)CC2C4)C1=O` (stereo unspecified), the MIC50 in the assay on MDCK [1] and with MDCK [3] was 11.1 µM (≈ 3.54 µg/mL) throughout. Besides, the MCC50 with MDCK [2] turned out to be 92 µM.

Take `CN(C)CCN1CCC(C2C3CC4CC(C3)CC2C4)C1=O` (stereo unspecified): the MIC50 against MDCK [1] and against MDCK [3] was 14.7 µM (≈ 4.27 µg/mL) each time. The MCC50 in the assay on MDCK [2] stood at 122.4 µM.

As for `C1CC(C2C3CC4CC(C3)CC2C4)CN1` (stereo unspecified), the MIC50 came to 0.6 µM (≈ 0.123 µg/mL) against MDCK [1] and 5 µM (≈ 1.03 µg/mL) in the assay with MDCK [3]. For the same molecule, the MCC50 in the assay on MDCK [2] was 124.4 µM.

Turning to `C1CCN(CCN2CCC(C3C4CC5CC(C4)CC3C5)C2)CC1` (stereo unspecified), the MIC50 turned out to be 1.7 µM (≈ 0.538 µg/mL) against MDCK [1] and 0.35 µM (≈ 0.111 µg/mL) with MDCK [3]. This molecule also showed an MCC50 in the assay with MDCK [2] of 14.6 µM.

On to `CCN(CC)CCN1CCC(C2C3CC4CC(C3)CC2C4)C1` (stereo unspecified), for which the MIC50 against MDCK [1] was 8.9 µM (≈ 2.71 µg/mL); against MDCK [3] it was more than 14.9 µM. This molecule displayed an MCC50 with MDCK [2] of 74.5 µM.

Take `CCCCN1CCC(C2C3CC4CC(C3)CC2C4)C1` (stereo unspecified): the MIC50 against MDCK [1] and in the assay on MDCK [3] was more than 26.9 µM throughout. In the assay on MDCK [2], this molecule registered an MCC50 of 134.3 µM.

In the case of `CN(C)CCN1CCC(C2C3CC4CC(C3)CC2C4)C1` (stereo unspecified), the values for the MIC50 against MDCK [1] and with MDCK [3] were 0.38 µM (≈ 0.105 µg/mL) and 9.4 µM (≈ 2.6 µg/mL), respectively. For the same molecule, the MCC50 in the assay on MDCK [2] came to 78.7 µM.

Turning to `NC12CC3CC(CC(C3)C1)C2` [AMANTADINE], the MIC50 is 2.6 µM (≈ 0.393 µg/mL) against MDCK [1] and 12.8 µM (≈ 1.94 µg/mL) with MDCK [3]. In the assay with MDCK [2], the MCC50 is more than 533.3 µM.

`NC(=O)c1ncn([C@@H]2O[C@H](CO)[C@@H](O)[C@H]2O)n1` [RIBAVIRIN]: the MIC50 against MDCK [1] was 615 µM (≈ 150 µg/mL); against MDCK [3], 123 µM (≈ 30 µg/mL). The same molecule returned an MCC50 in the assay on MDCK [2] of more than 1024.6 µM.

The record behind these values is ChEMBL document CHEMBL1133908, “Novel 3-(2-adamantyl)pyrrolidines with potent activity against influenza A virus-identification of aminoadamantane derivatives bearing two pharmacophoric amine groups” (2001).
